From US7163696B2, “Pharmaceutical formulations” (Pfizer Inc., priority 2001, dated 2007)

Assays:
[1] = Measurement of Papp values across Caco-2 cell monolayers (Example 15); assay type: in vitro ADME; settings: human, initial concentration in donor (apical) chamber 25 μM, 37° C.
Description: P Artursson and J Karlsson described the use of monolayers of Caco-2 cells to generate apparent permeability coefficients (Papp values) for drug absorption across the intestinal epithelium in ‘Correlation between oral drug absorption in humans and apparent drug permeability coefficients in human intestinal epithelial (Caco-2) cells’, Biochemical and Biophysical Research Communications, Vol 175 (3), pp 880–885, 1991.
Preferably, when measuring the Papp value, the initial concentration of test compound in the donor chamber is at a relevant therapeutic concentration, for example 25 μM.
Caco-2 cells originating from a human colon carcinoma were obtained from the ATCC (HTB-37) and were used between passage number 24–44. Cells were maintained in MEM with Earles salts containing 2 mM L-glutamine, 1 mM sodium pyruvate, 1% (v/v) MEM non-essential amino acids (Gibco) and 20% foetal calf serum (Sigma) at 37° C. in an atmosphere of 5% CO2 and 90% relative humidity. Falcon 24 well filter inserts (Becton Dickinson) were seeded with 4×10^4 cells/well. […]
Transport data across the Caco-2 cell monolayers is expressed as Papp values. Papp values are calculated according to the equation disclosed by Artursson and Karlsson as follows: Papp=(dQ/dt)(1/AC0), wherein dQ/dt is the permeability rate, Co the initial concentration in the donor chamber, and A the surface area of the monolayer.

[2] = Bioavailability testing by the applicants (unpublished); settings: in vivo

| SMILES | Papp A→B at 2 h, 25 μM [1] [×10⁻⁶ cm/s] | absorption from the colon [2] |
| --- | --- | --- |
| COc1cc2nc(N3CCc4c(cccc4NS(C)(=O)=O)C3)nc(N)c2c(-c2ccccn2)c1OC.CS(=O)(=O)O [4-amino-6,7-dimethoxy-2-(5-methanesulfonamido-1,2,3,4-tetrahydroisoquinol-2-yl)-5-(2-pyridyl)quinazoline mesylate] | 11 |  |
| COc1cc2nc(N3CCc4c(cccc4NS(C)(=O)=O)C3)nc(N)c2c(-c2ccccn2)c1OC [4-amino-6,7-dimethoxy-2-(5-methanesulfonamido-1,2,3,4-tetrahydroisoquinol-2-yl)-5-(2-pyridyl)quinazoline] |  | low, and highly variable |
